Calls of active or inactive are those of the source. Cut-off read from the data, not from the text of the source, for most assays here: actives have a measured EC50 and inactives only a lower limit.
Tests used:
[1] = Luminescence Cell-Based Dose Confirmation HTS to Identify Activators of 5'UTR Stem-Loop Driven Alpha-Synuclein mRNA Translation in H4 Neuroglioblastoma Cells. [Related pubchem assays: 1829 (Project Summary), 1814 (Primary HTS)]; type: functional
[2] = Luminescence Cell-Based Dose Response HTS to Identify Activators of Luciferase Translation or Activity in H4 […] Cells. [Related pubchem assays: 1829 (Project Summary), 1814 (Primary HTS)]; type: functional
Paired box protein Pax-8 = Paired box protein Pax-8 (Homo sapiens, UniProt Q06710); assay: inhibitors of PAX8-driven TPO luciferase reporter, dose response, RMG-I cells, cherry-pick (AID 687027); type: functional, cell-based;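 note: luciferase reporter driven by Pax8 target thyroperoxidase promoter measured by SteadyGlo luminescence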
[3] = NIH:OVCAR-3 ovarian cancer cell cytotoxicity, dose response, PAX8 inhibitor project, plate reader, dry powder samples (AID 743044); type: functional, cell-based
[4] = cytotoxicity in OVCAR8 ovarian cancer cells, dose response, PAX8 project, cell-based, plate reader, dry powder samples (AID 743197); type: functional; conditions: OVCAR-8
[5] = target: T1, High affinity choline transporter 1 (Homo sapiens, UniProt Q9GZV3); assay: CHT inhibitors, dose response, cell-based, 5-point CRC, membrane potential dye (AID 504840); type: functional
T1 sequence (Q9GZV3 whole entry): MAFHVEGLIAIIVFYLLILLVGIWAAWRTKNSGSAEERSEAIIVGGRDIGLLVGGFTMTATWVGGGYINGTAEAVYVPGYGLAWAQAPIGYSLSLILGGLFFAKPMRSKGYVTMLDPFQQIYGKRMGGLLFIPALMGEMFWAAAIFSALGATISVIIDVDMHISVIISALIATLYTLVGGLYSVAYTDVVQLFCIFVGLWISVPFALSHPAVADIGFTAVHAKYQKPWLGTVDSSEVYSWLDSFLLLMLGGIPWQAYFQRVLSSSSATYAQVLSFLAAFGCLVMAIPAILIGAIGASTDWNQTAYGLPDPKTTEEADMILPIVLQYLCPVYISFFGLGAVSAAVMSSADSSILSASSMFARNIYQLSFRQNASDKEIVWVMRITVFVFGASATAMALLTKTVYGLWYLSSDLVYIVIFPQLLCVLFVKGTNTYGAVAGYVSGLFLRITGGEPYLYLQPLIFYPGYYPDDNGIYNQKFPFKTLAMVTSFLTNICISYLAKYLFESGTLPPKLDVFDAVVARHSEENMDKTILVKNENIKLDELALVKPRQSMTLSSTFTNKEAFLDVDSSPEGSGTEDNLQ

H4 = assay: Luminescence Cell-Based Dose Response HTS to Identify Activators of 5'UTR Stem-Loop Driven Prion Protein mRNA Translation in H4 Neuroglioblastoma Cells. [Related pubchem assays: 1829 (Project Summary), 1814 (Primary HTS)]; type: functional; conditions: Homo sapiens
[6] = inhibitors of intracellular T. cruzi replication, confirmation, NIH3T3 host cells, beta-gal luminescence (AID 2044); type: functional, cell-based;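 note: intracellular parasites grown in NIH/3T3 mouse fibroblasts as host cells; luminescent beta-galactosidase reporter signal from transgenic T. cruzi replicating inside host cells; inhibitors lower the luminescence signal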
[7] = cytotoxicity toward NIH3T3 fibroblasts, dose response, counter-screen, cell-based, ATP luminescence, mouse fibroblasts (AID 2010); type: functional;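 note: cells exposed to compound for about 90 hours before reading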
[8] = target: T2, Carboxy-terminal domain RNA polymerase II polypeptide A small phosphatase 1 (Homo sapiens, UniProt Q9GZU7); assay: inhibitors of CTDSP1, concentration-response testing, biochemical assay, absorbance-based, actives from ultra-high-throughput screening (AID 540297); type: functional
T2 sequence (Q9GZU7 whole entry): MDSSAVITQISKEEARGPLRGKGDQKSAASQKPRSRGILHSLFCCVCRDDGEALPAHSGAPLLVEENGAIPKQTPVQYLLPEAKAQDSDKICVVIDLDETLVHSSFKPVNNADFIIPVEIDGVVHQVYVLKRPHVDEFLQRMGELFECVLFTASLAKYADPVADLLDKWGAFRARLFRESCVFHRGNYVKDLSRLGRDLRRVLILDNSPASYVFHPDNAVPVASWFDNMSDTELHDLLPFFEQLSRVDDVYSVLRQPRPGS

[9] = THP-1 cell cytotoxicity, dose response, cytotoxicity control for non-replicating M. tuberculosis project (AID 489025); type: functional
cells [10] = type: functional
[11] = NIH-3T3 fibroblast cytotoxicity, dose response, cytotoxicity control, cell-based, fluorescence, Alamar Blue, secondary assay (AID 2327); type: functional;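 note: NIH-3T3 mouse fibroblasts cultured with fluconazole at 8 µg/mL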
[12] = C. albicans growth with fluconazole, confirmation, fluorescence, retest (AID 2467); type: functional, cell-based
H9c2 = assay: cells; type: functional, cell-based; conditions: Rattus norvegicus, H9c2, Myocardium;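 note: confirmatory concentration-response retest of ultra-high-throughput screening hits for modulation of myocardial damage; cell death induced by hydrogen peroxide oxidative stress; compound pretreatment for 60 min then peroxide exposure for 2 h; potency is for protecting the cells against peroxide damage rather than for killing them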
[13] = test system: Streptococcus sp. 'group A'; assay: growth inhibition of control SK(-) GAS strain, dose response, counter-screen for streptokinase expression inhibitor project, luminescence, kanamycin, BacTiterGlo, confirmation (AID 1900); type: functional, organism-based
Streptokinase A = target: T3, Streptokinase A (Streptococcus pyogenes serotype M1, UniProt P10520); assay: S. pyogenes streptokinase expression inhibitors, potency, dose response, plasminogen activation absorbance, OD405 (AID 1914); type: functional, Streptococcus pyogenes M1 GAS;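 note: secreted streptokinase activity via plasminogen activation per viability signal from cell pellet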
T3 sequence (P10520 whole entry): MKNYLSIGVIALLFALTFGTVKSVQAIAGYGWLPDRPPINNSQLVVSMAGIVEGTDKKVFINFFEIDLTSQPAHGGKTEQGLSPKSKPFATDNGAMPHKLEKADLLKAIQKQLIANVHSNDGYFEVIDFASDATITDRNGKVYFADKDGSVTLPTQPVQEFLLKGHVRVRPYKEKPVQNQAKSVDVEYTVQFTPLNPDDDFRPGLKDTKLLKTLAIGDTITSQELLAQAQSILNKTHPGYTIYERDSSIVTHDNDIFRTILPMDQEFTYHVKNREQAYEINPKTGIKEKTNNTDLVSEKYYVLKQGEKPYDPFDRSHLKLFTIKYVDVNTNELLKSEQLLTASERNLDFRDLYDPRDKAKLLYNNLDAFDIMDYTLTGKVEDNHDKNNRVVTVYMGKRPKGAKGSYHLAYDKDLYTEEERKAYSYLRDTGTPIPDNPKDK

Streptococcus = assay: Group A Streptococcus viability loss, dose response, counter-screen for streptokinase expression inhibitor project, luminescence, BacTiterGlo (AID 1915); type: functional, organism-based;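 note: potency for reduction of bacterial viability or growth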
cells [14] = type: functional, cell-based
[15] = target: T4, Heat shock factor protein 1 (Mus musculus, UniProt P38532); assay: inhibition of MG132-induced HSE-luciferase signal, confirmation, cell-based, NIH3T3, luminescence, dose retest (AID 2382); type: functional;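 note: NIH3T3 fibroblasts with HSF1-driven luciferase reporter stressed by proteasome inhibitor MG132; luminescence from HSF1-driven luciferase expression after 8 hours of MG132 stress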
T4 sequence (P38532 whole entry): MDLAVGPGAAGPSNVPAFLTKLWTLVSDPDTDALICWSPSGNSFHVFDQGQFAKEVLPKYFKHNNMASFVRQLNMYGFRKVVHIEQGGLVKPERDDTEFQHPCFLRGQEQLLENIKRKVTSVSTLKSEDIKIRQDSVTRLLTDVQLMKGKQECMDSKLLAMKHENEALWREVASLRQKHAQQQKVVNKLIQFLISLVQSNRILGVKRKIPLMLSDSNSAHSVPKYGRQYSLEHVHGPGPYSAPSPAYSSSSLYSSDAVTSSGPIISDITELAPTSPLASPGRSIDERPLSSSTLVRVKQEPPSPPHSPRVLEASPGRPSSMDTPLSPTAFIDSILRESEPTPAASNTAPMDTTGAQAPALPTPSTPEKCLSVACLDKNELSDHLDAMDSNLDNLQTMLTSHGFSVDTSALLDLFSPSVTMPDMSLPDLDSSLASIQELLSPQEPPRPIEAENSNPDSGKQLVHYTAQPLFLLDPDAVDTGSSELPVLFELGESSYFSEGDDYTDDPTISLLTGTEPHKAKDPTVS

cells [16] = type: functional, cell-based; remark: listed apart in the source

Chain of Paired box protein Pax-8 (Q06710 whole entry): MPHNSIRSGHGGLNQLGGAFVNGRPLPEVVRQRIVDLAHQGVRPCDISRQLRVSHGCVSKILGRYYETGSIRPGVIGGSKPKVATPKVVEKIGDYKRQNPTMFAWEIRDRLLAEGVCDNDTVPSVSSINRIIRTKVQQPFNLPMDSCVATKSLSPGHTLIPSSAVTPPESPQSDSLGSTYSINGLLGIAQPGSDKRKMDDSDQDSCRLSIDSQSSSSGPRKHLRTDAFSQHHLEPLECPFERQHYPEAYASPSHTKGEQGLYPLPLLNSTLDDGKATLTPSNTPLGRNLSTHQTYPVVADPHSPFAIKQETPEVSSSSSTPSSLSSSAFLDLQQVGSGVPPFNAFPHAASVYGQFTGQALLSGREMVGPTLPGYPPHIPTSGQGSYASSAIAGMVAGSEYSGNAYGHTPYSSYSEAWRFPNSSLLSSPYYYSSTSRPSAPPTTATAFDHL

SMILES: COc1ccc(-c2cc3c(=O)n(CC(=O)NCc4ccc(F)cc4)ncn3n2)cc1
- EC50 [1]: 1.33 µM (active)
- EC50 [2]: 0.124 µM (active)

SMILES: C[C@H](CO)N1C[C@H](C)[C@H](CN(C)Cc2ccc(C(F)(F)F)cc2)OCCCC[C@H](C)Oc2ccc(NC(=O)NC3CCCCC3)cc2C1=O
- AC50 (Paired box protein Pax-8): 10.1 µM (active)
- AC50 [3]: 41.6 µM (active)
- AC50 [4]: 41.7 µM (active)

SMILES: C[C@H](CO)N1C[C@H](C)[C@H](CN(C)Cc2ccc(C(F)(F)F)cc2)OCCCC[C@H](C)Oc2ccc(NS(=O)(=O)c3ccc(F)cc3)cc2C1=O
- AC50 (Paired box protein Pax-8): 7.71 µM (active)
- AC50 [3]: 53.3 µM (active)
- AC50 [4]: 58.2 µM (active)

SMILES: CC(NC(=O)c1cccc(OC2CCN(C(=O)C3CC3)CC2)c1)c1ccc(F)cc1 (configuration not stated)
- IC50 [5]: 17.4 µM (active)

SMILES: N#Cc1c(/N=C/c2cc(Br)cs2)sc2c1CCC2
- EC50 [1]: > 120 µM (not active)
- EC50 [2]: 33.6 µM (active)
- EC50 (H4): 11.2 µM (active)

SMILES: CN(/N=C/c1ccc([N+](=O)[O-])o1)c1ccccc1
- EC50 [6]: 0.665 µM (active)
- EC50 [7]: > 60 µM (not active)
- IC50 [5]: 12.9 µM (active)

SMILES: O=C(CSc1nnc(COc2ccccc2)n1Cc1ccco1)NCc1ccco1
- IC50 [8]: 7.21 µM (active)

SMILES: CCN(CC)CCCn1c2c(c(SCC(=O)N3CCc4ccccc43)nc1=O)CCC2
- IC50 [5]: 10.9 µM (active)

SMILES: Clc1cccc(Cl)c1Cn1nnc(N2CCCC2)n1
- EC50 [1]: 12 µM (active)
- EC50 [2]: 13.8 µM (active)
- EC50 (H4): 20.3 µM (active)

SMILES: NC1=C(c2nc3ccccc3s2)C(=O)CN1Cc1ccccc1
- EC50 [1]: > 120 µM (not active)
- EC50 [2]: 92 µM (active)
- EC50 (H4): > 120 µM (not active)

SMILES: Clc1ccc(OCCOCCN2CCc3ccccc3C2)c(Cl)c1
- CC50 [9]: > 40 µM (active)
- IC50 (cells [10]): 18.6 µM (active)

SMILES: CC1CCN(Cc2nc(-c3ccccc3)no2)CC1
- EC50 [1]: 0.272 µM (active)
- EC50 [2]: < 0.1 µM (active)
- EC50 (H4): 25.8 µM (active)

SMILES: CSCC[C@@H](C(=O)NCCCCCCCCCCC(=O)N1CCN(C(=O)OC(C)(C)C)CC1)n1cc(CCO)nn1
- IC50 [5]: 14.5 µM (active)

SMILES: CC(C)c1ccc(N(C(=O)c2csnn2)C(C(=O)NC(C)(C)C)c2ccncc2)cc1 (configuration not stated)
- EC50 [1]: 5.54 µM (active)
- EC50 [2]: > 120 µM (not active)
- EC50 (H4): 22.6 µM (inconclusive)

SMILES: CCS(=O)(=O)C1=NN2C(=N)/C(=C\c3ccc(OS(=O)(=O)c4ccccc4)cc3)C(=O)N=C2S1
- IC50 [5]: 6.95 µM (active)

SMILES: Cc1ccc(-c2csc(C3=C(N)N(NC(=O)c4ccco4)CC3=O)n2)cc1
- IC50 [8]: 12.9 µM (active)

SMILES: O=C(O)CCCCCN1C(=O)/C(=C/c2nc3ccccc3[nH]2)SC1=S
- EC50 [11]: > 150 µM (inactive)
- EC50 [12]: 5.71 µM (active)
- IC50 [8]: 6.09 µM (active)

SMILES: O=C(O)/C=C\C(=O)Nc1ccccc1C#Cc1ccc(Br)cc1
- EC50 [1]: 114 µM (active)
- EC50 [2]: 19.7 µM (active)
- EC50 (H4): 7.95 µM (active)

SMILES: Cc1ccc(C(=O)N/N=C\c2ccc(-c3ccc(Cl)cc3)o2)cn1
- CC50 [9]: 30 µM (active)
- IC50 (cells [10]): > 50 µM (active)
- IC50 (H9c2): > 79 µM (inactive)

SMILES: C[C@@H]1CN([C@H](C)CO)C(=O)c2cc(NC(=O)Nc3ccc(C(F)(F)F)cc3)ccc2O[C@@H](C)CCCCO[C@H]1CN(C)S(=O)(=O)c1ccccc1
- AC50 (Paired box protein Pax-8): 2.23 µM (active)
- AC50 [3]: 31.8 µM (active)

SMILES: COc1ccc2c3c([nH]c2c1)[C@H](CO)N(C(=O)Nc1cccc(F)c1)CC31CCN(S(=O)(=O)c2cccc(C)c2)CC1
- AC50 (Paired box protein Pax-8): 5.2 µM (active)
- AC50 [3]: 42.4 µM (active)
- AC50 [4]: > 70 µM (inactive)

SMILES: CC(/C=C1\SC(=S)N(NC(=O)c2ccncc2)C1=O)=C\c1ccccc1
- IC50 [5]: 14.5 µM (active)

SMILES: CCC(Oc1ccc2c(c1)C(=O)CC(C)(C)O2)C(=O)NCCN1CCCCCC1 (configuration not stated)
- IC50 [5]: 15.8 µM (active)

SMILES: C/C(=N\NC(=O)c1cc(Br)ccc1O)c1cccc(NC(=O)c2ccccc2F)c1
- EC50 [13]: 3.04 µM (active)
- EC50 (Streptokinase A): > 150 µM (not active)
- EC50 (Streptococcus): 74 µM (active)
- IC50 [8]: 2.94 µM (active)

SMILES: Cc1c(CCC(=O)O)c(=O)oc2cc(OCc3ccccc3Br)ccc12
- IC50 [8]: 10.6 µM (active)

SMILES: CC1(C)Cc2c(C#N)c(SCCC#N)nc(N3CCOCC3)c2CO1
- EC50 (cells [14]): > 350 µM (not active)
- EC50 [15]: > 195 µM (not active)
- EC50 (cells [16]): > 350 µM (not active)

SMILES: Nc1c(C(=O)OC2CCCCC2)c2nc3ccccc3nc2n1CC1CCCO1 (configuration not stated)
- IC50 [5]: 13.2 µM (active)

SMILES: O=C(Nc1ccc(NC(=O)C2CC2)nc1)c1cccc(F)c1
- EC50 [1]: 13.1 µM (active)
- EC50 [2]: 11.2 µM (active)
- EC50 (H4): > 120 µM (not active)
